Data as given in ChEMBL document CHEMBL1129166, “Design and synthesis of novel, pseudo C2 symmetric inhibitors of HIV protease” (Bioorg Med Chem Lett, 1996).

Key:
[1] = target: Human immunodeficiency virus type 1 protease (Human immunodeficiency virus 1, UniProt Q72874); assay: Compound was evaluated for the inhibition of HIV protease
[2] = target: Human immunodeficiency virus type 1 protease (Human immunodeficiency virus 1) (UniProt Q72874); assay: Compound was evaluated for the inhibition of HIV protease at 0.5 uM

| SMILES | IC50 [1] [nM] | inhibition [2] [%] |
| --- | --- | --- |
| O=C(Nc1ccccc1C(=O)N[C@H](CC[C@H](O)[C@H](Cc1ccccc1)NC(=O)c1ccccc1NC(=O)OCc1ccccn1)Cc1ccccc1)OCc1ccccn1 | 14 | – |
| CC(C)C(NC(=O)OCc1ccccc1)C(=O)N[C@@H](Cc1ccccc1)CC(C[C@H](Cc1ccccc1)NC(=O)C(NC(=O)OCc1ccccc1)C(C)C)[N+](=O)[O-] (stereo not given in full) | 1500 | – |
| CC(C)[C@H](NC(=O)OCc1ccccc1)C(=O)N[C@@H](Cc1ccccc1)CC1(C[C@H](Cc2ccccc2)NC(=O)[C@@H](NC(=O)OCc2ccccc2)C(C)C)CCC(=O)N1 | 2700 | – |
| CC(C)[C@H](NC(=O)N(C)Cc1ccccn1)C(=O)N[C@@H](Cc1ccccc1)[C@H](O)[C@H](O)[C@H](Cc1ccccc1)NC(=O)[C@@H](NC(=O)N(C)Cc1ccccn1)C(C)C [A-77003] | > 1 | 57 |
| O=C(N[C@H](CC[C@H](O)[C@H](Cc1ccccc1)NC(=O)c1ccccc1NS(=O)(=O)c1ccccn1)Cc1ccccc1)c1ccccc1NS(=O)(=O)c1ccccn1 | > 3000 | – |
| CC(C)(C)OC(=O)N[C@H](CC[C@H](O)[C@H](Cc1ccccc1)NC(=O)OC(C)(C)C)Cc1ccccc1 | 380 | – |
| CC(C)C(NC(=O)OCc1ccccc1)C(=O)N[C@H](CC[C@H](O)[C@H](Cc1ccccc1)NC(=O)C(NC(=O)OCc1ccccc1)C(C)C)Cc1ccccc1 (stereo not given in full) | > 1 | 62 |
| CC(C)C(NC(=O)OCc1ccccc1)C(=O)N[C@H](CC[C@@H](O)[C@H](Cc1ccccc1)NC(=O)C(NC(=O)OCc1ccccc1)C(C)C)Cc1ccccc1 (stereo not given in full) | 200 | – |
